# Laboratory results from US7138361B2, “Herbicidal heterocycles” (E. I. du Pont de Nemours and Company, priority 2000, dated 2006).
# What was measured:
# Format in all cases: in vivo
# [1] = test system: duck salad (Heteranthera limosa); assay: Test C flooded paddy test; conditions: for Ducksalad plant response rating: Flooded Paddy, scale 0 to 100, 0 no effect, 100 complete control; for Plant response rating, Ducksalad: flooded paddy test, scale 0 to 100 (0 no effect, 100 complete control)
# Outline: (§1)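 Flooded paddy, 2-leaf stage at treatment. Readout: visual % control vs untreated, 0–100, at 12–14 d in greenhouse.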
# [2] = test system: smallflower flatsedge (Cyperus difformis); assay: Test C flooded paddy test; conditions: for Flatsedge plant response rating: Flooded Paddy, scale 0 to 100, 0 no effect, 100 complete control; for Plant response rating, Flatsedge: flooded paddy test, scale 0 to 100 (0 no effect, 100 complete control)
# Outline: as §1
# [3] = test system: barnyardgrass (Echinochloa crus-galli); assay: Test C flooded paddy test; conditions: for Barnyardgrass plant response rating: Flooded Paddy, scale 0 to 100, 0 no effect, 100 complete control; for Plant response rating, Barnyardgrass: flooded paddy test, scale 0 to 100 (0 no effect, 100 complete control)
# Outline: as §1
# corn (Zea mays) = assay: Test C preemergence
# Source text: (§2) Seeds of plant species selected from bermudagrass (Cynodon dactylon), Surinam grass (Brachiaria decumbens), cocklebur (Xanthium strumarium), corn (Zea mays), crabgrass (Digitaria sanguinalis), woolly cupgrass (Eriochloa villosa), giant foxtail (Setaria faberii), goosegrass (Eleusine indica), johnsongrass (Sorghum halepense), kochia (Kochia scoparia), lambsquarters (Chenopodium album), morningglory (Ipomoea hederacea), yellow nutsedge (Cyperus esculentus), pigweed (Amaranthus retroflexus), common ragweed (Ambrosia elatior), soybean (Glycine max) and velvetleaf (Abutilon theophrasti) were planted and treated preemergence with test chemicals formulated in a non-phytotoxic solvent mixture which included a surfactant.
# (§3) At the same time, plants selected from these crop and weed species and also winter barley (Hordeum vulgare), blackgrass (Alopecurus myosuroides), canary grass (Phalaris minor), chickweed (Stellaria media), downy brome (Bromus tectorum), green foxtail (Setaria viridis), Italian ryegrass (Lolium multiflorum), wheat (Triticum aestivum), wild oat (Avena fatua) and windgrass (Apera spica-venti) were treated with postemergence applications of some of the test chemicals formulated in the same manner. Plants ranged in height from 2 to 18 cm (1- to 4-leaf stage) for postemergence treatments. Plant species in the flooded paddy test consisted of rice (Oryza saliva), smallflower flatsedge (Cyperus difformis), duck salad (Heteranthera limosa) and barnyardgrass (Echinochloa crus-galli) grown to the 2-leaf stage for testing. Treated plants and controls were maintained in a greenhouse for 12 to 14 days, after which time all species were compared to controls and visually evaluated. Plant response ratings, summarized in Table C, are based on a scale of 0 to 100 where 0 is no effect and 100 is complete control. A dash (-) response means no test result.
# [4] = test system: goosegrass (Eleusine indica); assay: Test C preemergence
# Source text: as §2, §3
# [5] = test system: crabgrass (Digitaria sanguinalis); assay: Test C preemergence
# Source text: as §2, §3
# [6] = test system: velvetleaf (Abutilon theophrasti); assay: Test C preemergence
# Source text: as §2, §3
# Nightshade = assay: Test C preemergence
# Source text: as §2, §3
# [7] = test system: giant foxtail (Setaria faberii); assay: Test C preemergence
# Source text: as §2, §3
# [8] = test system: common ragweed (Ambrosia elatior); assay: Test C preemergence
# Source text: as §2, §3
# [9] = test system: johnsongrass (Sorghum halepense); assay: Test C preemergence
# Source text: as §2, §3
# [10] = test system: bermudagrass (Cynodon dactylon); assay: Test C preemergence
# Source text: as §2, §3
# [11] = test system: Surinam grass (Brachiaria decumbens); assay: Test C preemergence
# Source text: as §2, §3
# [12] = test system: woolly cupgrass (Eriochloa villosa); assay: Test C preemergence
# Source text: as §2, §3
# Sunflower = assay: Test C preemergence
# Source text: as §2, §3
# [13] = test system: lambsquarters (Chenopodium album); assay: Test C preemergence
# Source text: as §2, §3
# [14] = test system: cocklebur (Xanthium strumarium); assay: Test C preemergence
# Source text: as §2, §3
# [15] = test system: morningglory (Ipomoea hederacea); assay: Test C preemergence
# Source text: as §2, §3
# [16] = test system: pigweed (Amaranthus retroflexus); assay: Test C preemergence
# Source text: as §2, §3
# [17] = test system: yellow nutsedge (Cyperus esculentus); assay: Test C preemergence
# Source text: as §2, §3
# soybean (Glycine max) = assay: Test C preemergence
# Source text: as §2, §3
# [18] = Preemergence, Rate 500 g/ha, scale 0 to 100
# [19] = Rate 62 g/ha, scale 0 to 100, 0 no effect, 100 complete control
# [20] = preemergence, Rate 250 g/ha, visual evaluation after 12 to 14 days
# [21] = preemergence, Rate 125 g/ha, scale 0 to 100, 0 no effect, 100 complete control
smiles,measurement,setting,value
CCC(C)c1ccn(C2SCN(c3cccc(OC(F)(F)F)c3)C2=O)n1 (stereo not shown) [Compound 32],Ducksalad plant response rating,[1]; Rate 250 g/ha,100
same,Ducksalad plant response rating,[1]; Rate 500 g/ha,80
same,"Plant response rating, Ducksalad",[1]; Rate 62 g/ha,50
same,"Plant response rating, Ducksalad",[1]; Rate 125 g/ha,80
same,Flatsedge plant response rating,[2]; Rate 250 g/ha,100
same,Flatsedge plant response rating,[2]; Rate 500 g/ha,100
same,"Plant response rating, Flatsedge",[2]; Rate 62 g/ha,100
same,"Plant response rating, Flatsedge",[2]; Rate 125 g/ha,100
same,Barnyardgrass plant response rating,[3]; Rate 250 g/ha,100
same,Barnyardgrass plant response rating,[3]; Rate 500 g/ha,100
same,"Plant response rating, Barnyardgrass",[3]; Rate 62 g/ha,20
same,"Plant response rating, Barnyardgrass",[3]; Rate 125 g/ha,100
same,"Plant response rating, Corn",corn (Zea mays); [18],60
same,"Plant response rating, Corn",corn (Zea mays); [19],40
same,"Plant response rating (0 to 100), Corn",corn (Zea mays); [20],50
same,"Plant response rating, Corn",corn (Zea mays); [21],50
same,"Plant response rating, Goosegrass",[4]; [18],100
same,"Plant response rating, Goosegrass",[4]; [19],100
same,"Plant response rating (0 to 100), Goosegrass",[4]; [20],100
same,"Plant response rating, Goosegrass",[4]; [21],100
same,"Plant response rating, Crabgrass",[5]; [18],100
same,"Plant response rating, Crabgrass",[5]; [19],100
same,"Plant response rating (0 to 100), Crabgrass",[5]; [20],100
same,"Plant response rating, Crabgrass",[5]; [21],100
same,"Plant response rating, Velvetleaf",[6]; [18],40
same,"Plant response rating, Velvetleaf",[6]; [19],0
same,"Plant response rating (0 to 100), Velvetleaf",[6]; [20],0
same,"Plant response rating, Velvetleaf",[6]; [21],0
same,"Plant response rating, Nightshade",Nightshade; [19],50
same,"Plant response rating, Nightshade","Nightshade; Rate 125 g/ha, scale 0 to 100, 0 no effect, 100 complete control",50
same,"Plant response rating, Nightshade","Nightshade; Rate 500 g/ha, scale 0 to 100",100
same,"Plant response rating, Foxtail, Giant",[7]; [18],100
same,"Plant response rating, Foxtail, Giant",[7]; [19],70
same,"Plant response rating (0 to 100), Foxtail, Giant",[7]; [20],100
same,"Plant response rating, Foxtail, Giant",[7]; [21],50
same,"Plant response rating, Ragweed, Common",[8]; [18],100
same,"Plant response rating, Ragweed, Common",[8]; [19],0
same,"Plant response rating (0 to 100), Ragweed, Common",[8]; [20],90
same,"Plant response rating, Ragweed, Common",[8]; [21],0
same,"Plant response rating, Johnsongrass",[9]; [18],90
same,"Plant response rating, Johnsongrass",[9]; [19],30
same,"Plant response rating (0 to 100), Johnsongrass",[9]; [20],90
same,"Plant response rating, Johnsongrass",[9]; [21],40
same,"Plant response rating, Bermudagrass",[10]; [18],100
same,"Plant response rating, Bermudagrass",[10]; [19],50
same,"Plant response rating (0 to 100 where 0 is no effect and 100 is complete control), Bermudagrass",[10]; [20],100
same,"Plant response rating, Bermudagrass",[10]; [21],90
same,"Plant response rating, Surinam grass",[11]; [18],90
same,"Plant response rating, Surinam grass",[11]; [19],70
same,"Plant response rating (0 to 100), Surinam grass",[11]; [20],80
same,"Plant response rating, Surinam grass",[11]; [21],80
same,"Plant response rating, Cupgrass, Woolly",[12]; [18],90
same,"Plant response rating, Cupgrass, Woolly",[12]; [19],60
same,"Plant response rating (0 to 100), Cupgrass, Woolly",[12]; [20],90
same,"Plant response rating, Cupgrass, Woolly",[12]; [21],70
same,"Plant response rating, Sunflower",Sunflower; [19],0
same,"Plant response rating, Sunflower","Sunflower; Rate 500 g/ha, scale 0 to 100",70
same,"Plant response rating, Lambsquarters",[13]; [18],100
same,"Plant response rating, Lambsquarters",[13]; [19],100
same,"Plant response rating (0 to 100), Lambsquarters",[13]; [20],100
same,"Plant response rating, Lambsquarters",[13]; [21],100
same,"Plant response rating, Cocklebur",[14]; [18],0
same,"Plant response rating, Cocklebur",[14]; [19],0
same,"Plant response rating (0 to 100), Cocklebur",[14]; [20],0
same,"Plant response rating, Morningglory",[15]; [18],80
same,"Plant response rating, Morningglory",[15]; [19],30
same,"Plant response rating (0 to 100), Morningglory",[15]; [20],50
same,"Plant response rating, Morningglory",[15]; [21],40
same,"Plant response rating, Pigweed",[16]; [18],80
same,"Plant response rating, Pigweed",[16]; [19],70
same,"Plant response rating (0 to 100), Pigweed",[16]; [20],70
same,"Plant response rating, Pigweed",[16]; [21],20
same,"Plant response rating, Nutsedge",[17]; [18],60
same,"Plant response rating (0 to 100), Nutsedge",[17]; [20],50
same,"Plant response rating, Nutsedge",[17]; [21],50
same,"Plant response rating, Soybean",soybean (Glycine max); [18],60
same,"Plant response rating, Soybean",soybean (Glycine max); [19],50
same,"Plant response rating (0 to 100), Soybean",soybean (Glycine max); [20],60
same,"Plant response rating, Soybean",soybean (Glycine max); [21],50
